Measured values published in US4605651A, “Antibiotic amino acid derivatives of cephalosporins” (Kyoto Pharmaceutical Industries, Ltd., priority 1982, dated 1986).
Counter-ions that a name gives are not always drawn.

Experiments:
[1] = Acute toxicity testing, oral, in mice; conditions: mouse, in vivo, aqueous solution, male ICR mice 5 weeks of age, n=3
Procedure: The results obtained in oral acute toxicity testing of the cephalosporin derivatives according to the present invention in mice are shown below.
Animals: Male mice (ICR, 5 weeks of age), n=3
Method of administration: The cephalosporin derivatives obtained in the above examples were dissolved in distilled water and the aqueous solutions were orally administered.

[2] = set-up: species or system humans; conditions: human, in vivo, po, 480 min
Excerpt: In humans, oral administration of the cephalosporin derivatives according to the present invention led to urinary recovery of the corresponding unesterified cephalosporins at the recovery rates shown below in the table. Method of administration: A 125-mg (on the unesterified form basis) capsule was orally administered. Assay: Microbial method using Bacillus subtilis

Row | Structure (SMILES) | LD50 [1] [mg/kg] | Percent urinary recovery (Hour 0 to Hour 8) [2] [%]
1 | Cn1nnnc1SCC1=C(C(=O)OCOC(=O)C(C)(C)C)N2C(=O)C(NC(=O)[C@H](OC(=O)CN)c3ccccc3)C2SC1 (stereo partly drawn) [Example 1, pivaloyloxymethyl 7-[D-O-(glycyl)mandelamido]-3-[(1-methyl-1H-tetrazol-5-yl)thiomethyl]-3-cephem-4-carboxylate hydrochloride] | 5000 | 38.0
2 | CC(=O)OC(C)OC(=O)C1=C(CSc2nnc(C)s2)CSC2C(NC(=O)[C@H](OC(=O)[C@H](C)N)c3ccccc3)C(=O)N12 (stereo partly drawn) [Example 2, 1-acetoxyethyl 7-[D-O-(L-alanyl)mandelamido]-3-[(5-methyl-1,3,4-thiadiazol-2-yl)thiomethyl]-3-cephem-4-carboxylate hydrochloride] |  | 35.2
3 | Cc1nnc(SCC2=C(C(=O)OCc3oc(=O)oc3C)N3C(=O)C(NC(=O)[C@H](OC(=O)[C@H](C)N)c4ccccc4)C3SC2)s1 (stereo partly drawn) [Example 9, (5-Methyl-1,3-dioxolen-2-on-4-ylmethyl) 7-[D-O-(L-alanyl)mandelamido]-3-[(5-methyl-1,3,4-thiadiazol-2-yl)thiomethyl]-3-cephem-4-carboxylate hydrochloride] | 5000 | 41.0
4 | Cc1nnc(SCC2=C(C(=O)OCOC(=O)C(C)(C)C)N3C(=O)C(NC(=O)[C@H](OC(=O)[C@@H]4CCCN4)c4ccccc4)C3SC2)s1 (stereo partly drawn) [Example 7, Pivaloyloxymethyl 7-[D-O-(L-prolyl)mandelamido]-3-[(5-methyl-1,3,4-thiadiazol-2-yl)thiomethyl]-3-cephem-4-carboxylate hydrochloride] | 5000 | 41.0
5 | Cc1nnc(SCC2=C(C(=O)OCOC(=O)C(C)(C)C)N3C(=O)C(NC(=O)[C@H](OC(=O)[C@@H](N)C(C)C)c4ccccc4)C3SC2)s1 (stereo partly drawn) [Example 6, Pivaloyloxymethyl 7-[D-O-(L-valyl)mandelamido]-3-[(5-methyl-1,3,4-thiadiazol-2-yl)thiomethyl]-3-cephem-4-carboxylate hydrochloride] |  | 36.0
6 | CC(=O)OC(C)OC(=O)C1=C(CSc2nnc(C)s2)CSC2C(NC(=O)[C@H](OC(=O)[C@@H]3CCCN3)c3ccccc3)C(=O)N12 (stereo partly drawn) [Example 17, 1-Acetoxyethyl 7-[D-O-(L-prolyl)mandelamido]-3-[(5-methyl-1,3,4-thiadiazol-2-yl)thiomethyl]-3-cephem-4-carboxylate hydrochloride] | 5000 | 40.9
7 | CCOC(=O)OC(C)OC(=O)C1=C(CSc2nncs2)CSC2C(NC(=O)[C@H](OC(=O)[C@H](C)N)c3ccccc3)C(=O)N12 (stereo partly drawn) [Example 3, 1-ethoxycarbonyloxyethyl 7-[D-O-(L-alanyl)mandelamido]-3-[(1,3,4-thiadiazol-2-yl)thiomethyl]-3-cephem-4-carboxylate] |  | 37.0
